pIC50: −log10 of the molar value.
Key:
Assay in all cases: radiometric filter-binding kinase assay
PRKAA1 or PRKAA2 (rat) = conditions: ATP 100 µM, accession and sequence are those of the human protein; for residual activity: compound 10.0 µM
MAPK14 (human) = MAPK14 (human) (UniProt Q16539); conditions: compound 10.0 µM; ATP 100 µM
MAPK13 (human) = MAPK13 (human) (UniProt O15264); conditions: compound 10.0 µM; ATP 100 µM
MAP2K1 (rabbit) = conditions: compound 10.0 µM; ATP 100 µM; accession and sequence are those of the human protein
PHKG1 or PHKG2 (rabbit) = conditions: compound 10.0 µM; ATP 100 µM; accession and sequence are those of the human protein
[1] = molecular target: CSNK2A1 or CSNK2A2 (human) (UniProt P19784+P68400); conditions: compound 10.0 µM; ATP 100 µM
CDK2 CCNA2 (human) = CDK2 CCNA2 (human) (UniProt P24941+P20248); conditions: for residual activity: compound 10.0 µM, ATP 100 µM
Chain of CDK2 CCNA2 (human) (P20248 whole entry, looked up, other chains not shown): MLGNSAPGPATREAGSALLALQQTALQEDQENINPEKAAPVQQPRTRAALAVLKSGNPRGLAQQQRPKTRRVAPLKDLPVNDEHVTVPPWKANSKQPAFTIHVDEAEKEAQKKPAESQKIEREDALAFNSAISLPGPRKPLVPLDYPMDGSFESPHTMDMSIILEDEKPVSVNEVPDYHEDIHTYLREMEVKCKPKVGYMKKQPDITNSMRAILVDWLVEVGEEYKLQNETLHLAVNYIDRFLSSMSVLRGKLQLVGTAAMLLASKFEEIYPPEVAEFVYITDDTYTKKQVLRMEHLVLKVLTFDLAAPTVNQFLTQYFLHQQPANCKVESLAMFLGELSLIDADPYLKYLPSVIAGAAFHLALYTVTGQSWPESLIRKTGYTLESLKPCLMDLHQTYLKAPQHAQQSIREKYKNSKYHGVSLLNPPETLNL

PDPK1 (human) = PDPK1 (human) (UniProt O15530); conditions: compound 10.0 µM; ATP 100 µM
Chain of PDPK1 (human) (O15530 whole entry, looked up): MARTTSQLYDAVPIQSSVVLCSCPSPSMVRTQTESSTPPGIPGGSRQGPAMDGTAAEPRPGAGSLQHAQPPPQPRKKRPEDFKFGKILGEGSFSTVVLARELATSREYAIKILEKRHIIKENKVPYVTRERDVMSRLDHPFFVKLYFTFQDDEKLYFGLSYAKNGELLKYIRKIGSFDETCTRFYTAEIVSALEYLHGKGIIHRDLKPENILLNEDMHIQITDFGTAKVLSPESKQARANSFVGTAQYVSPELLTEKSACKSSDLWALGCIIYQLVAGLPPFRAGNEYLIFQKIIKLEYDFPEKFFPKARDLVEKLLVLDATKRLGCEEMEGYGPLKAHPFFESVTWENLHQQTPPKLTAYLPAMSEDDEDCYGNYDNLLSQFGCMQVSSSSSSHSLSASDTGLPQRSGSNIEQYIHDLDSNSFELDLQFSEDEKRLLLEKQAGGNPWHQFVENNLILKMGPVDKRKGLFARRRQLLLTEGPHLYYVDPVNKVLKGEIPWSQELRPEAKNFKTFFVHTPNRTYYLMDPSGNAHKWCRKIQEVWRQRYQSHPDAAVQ

MAPK8 (human) = MAPK8 (human) (UniProt P45983); conditions: compound 10.0 µM; ATP 100 µM
Chain of MAPK8 (human) (P45983 whole entry, looked up): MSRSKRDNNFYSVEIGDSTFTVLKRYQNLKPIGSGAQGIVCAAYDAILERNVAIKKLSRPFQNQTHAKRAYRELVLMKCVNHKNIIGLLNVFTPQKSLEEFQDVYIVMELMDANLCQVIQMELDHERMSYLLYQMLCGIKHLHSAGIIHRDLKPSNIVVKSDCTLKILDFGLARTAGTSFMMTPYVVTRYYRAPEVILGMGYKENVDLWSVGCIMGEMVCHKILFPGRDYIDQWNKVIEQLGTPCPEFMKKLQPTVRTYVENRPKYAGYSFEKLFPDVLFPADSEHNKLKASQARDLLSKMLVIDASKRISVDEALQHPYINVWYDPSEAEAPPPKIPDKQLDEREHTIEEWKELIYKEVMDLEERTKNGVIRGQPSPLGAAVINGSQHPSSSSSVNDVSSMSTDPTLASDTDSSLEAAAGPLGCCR

MAPK11 (human) = MAPK11 (human) (UniProt Q15759); conditions: compound 10.0 µM; ATP 100 µM
CSK (human) = CSK (human) (UniProt P41240); conditions: ATP 100 µM; for residual activity: compound 10.0 µM
MAPK12 (human) = MAPK12 (human) (UniProt P53778); conditions: compound 10.0 µM; ATP 100 µM
AKT1 (human) = AKT1 (human) (UniProt P31749); conditions: compound 10.0 µM; ATP 100 µM
CHEK1 (human) = CHEK1 (human) (UniProt O14757); conditions: compound 10.0 µM; ATP 100 µM
PRKCA (human) = PRKCA (human) (UniProt P17252); conditions: compound 10.0 µM; ATP 100 µM
MAPKAPK5 (human) = MAPKAPK5 (human) (UniProt Q8IW41); conditions: compound 10.0 µM; ATP 100 µM
Chain of MAPKAPK5 (human) (Q8IW41 whole entry, looked up): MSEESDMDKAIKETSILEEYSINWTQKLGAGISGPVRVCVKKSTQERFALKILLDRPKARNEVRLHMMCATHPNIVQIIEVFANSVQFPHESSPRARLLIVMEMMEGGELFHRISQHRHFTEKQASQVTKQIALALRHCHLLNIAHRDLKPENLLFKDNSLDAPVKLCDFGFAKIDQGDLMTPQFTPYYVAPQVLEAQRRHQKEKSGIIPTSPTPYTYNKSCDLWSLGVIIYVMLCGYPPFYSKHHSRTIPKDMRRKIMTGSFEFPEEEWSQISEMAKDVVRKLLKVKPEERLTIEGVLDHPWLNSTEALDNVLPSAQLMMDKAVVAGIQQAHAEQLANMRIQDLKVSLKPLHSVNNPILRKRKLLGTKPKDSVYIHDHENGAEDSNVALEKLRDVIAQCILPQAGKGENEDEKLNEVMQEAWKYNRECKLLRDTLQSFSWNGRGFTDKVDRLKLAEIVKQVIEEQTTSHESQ

RPS6KA1 (rat) = conditions: compound 10.0 µM; ATP 100 µM; accession and sequence are those of the human protein
RPS6KA5 KD1 KD2 (human) = RPS6KA5 KD1 KD2 (human) (UniProt O75582); conditions: compound 10.0 µM; ATP 100 µM
[2] = tested on: RPS6KB1 (human), P23443 [T412E]; conditions: compound 10.0 µM; ATP 100 µM
DYRK1A (rat) = conditions: compound 10.0 µM; ATP 100 µM; accession and sequence are those of the human protein
ROCK2 (rat) = conditions: compound 10.0 µM; ATP 100 µM; accession and sequence are those of the human protein
MAPKAPK2 (human) = MAPKAPK2 (human) (UniProt P49137); conditions: compound 10.0 µM; ATP 100 µM
Chain of MAPKAPK2 (human) (P49137 whole entry, looked up): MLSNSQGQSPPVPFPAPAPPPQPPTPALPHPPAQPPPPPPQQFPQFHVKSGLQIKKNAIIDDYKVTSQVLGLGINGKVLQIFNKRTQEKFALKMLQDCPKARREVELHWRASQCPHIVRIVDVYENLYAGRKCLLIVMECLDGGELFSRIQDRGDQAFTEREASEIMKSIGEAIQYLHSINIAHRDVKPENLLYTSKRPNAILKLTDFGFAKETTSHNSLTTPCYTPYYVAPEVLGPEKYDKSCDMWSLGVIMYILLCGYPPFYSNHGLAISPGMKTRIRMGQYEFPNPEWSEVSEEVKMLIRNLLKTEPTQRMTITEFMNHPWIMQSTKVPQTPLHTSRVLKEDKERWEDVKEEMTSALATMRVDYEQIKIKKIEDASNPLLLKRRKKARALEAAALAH

CSNK1A1 (rat) = conditions: ATP 100 µM, accession and sequence are those of the human protein; for residual activity: compound 10.0 µM
[3] = tested on: SGK1 (human), O00141 [S422D]; conditions: ATP 100 µM; for residual activity: compound 10.0 µM
Chain of SGK1 (human), O00141 [S422D] (O00141 whole entry S422D, looked up): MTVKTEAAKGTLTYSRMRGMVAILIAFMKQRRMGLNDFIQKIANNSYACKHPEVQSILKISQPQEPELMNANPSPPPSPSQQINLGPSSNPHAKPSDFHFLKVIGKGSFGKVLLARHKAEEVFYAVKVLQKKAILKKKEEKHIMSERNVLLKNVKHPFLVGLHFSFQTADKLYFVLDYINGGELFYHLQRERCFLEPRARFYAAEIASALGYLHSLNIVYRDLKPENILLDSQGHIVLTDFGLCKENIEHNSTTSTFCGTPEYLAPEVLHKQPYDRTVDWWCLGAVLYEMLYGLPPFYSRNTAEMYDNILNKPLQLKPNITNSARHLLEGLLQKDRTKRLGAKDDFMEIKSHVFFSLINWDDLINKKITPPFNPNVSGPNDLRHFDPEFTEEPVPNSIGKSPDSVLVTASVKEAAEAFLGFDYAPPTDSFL

GSK3B (human) = GSK3B (human) (UniProt P49841); conditions: compound 10.0 µM; ATP 100 µM
Chain of GSK3B (human) (P49841 whole entry, looked up): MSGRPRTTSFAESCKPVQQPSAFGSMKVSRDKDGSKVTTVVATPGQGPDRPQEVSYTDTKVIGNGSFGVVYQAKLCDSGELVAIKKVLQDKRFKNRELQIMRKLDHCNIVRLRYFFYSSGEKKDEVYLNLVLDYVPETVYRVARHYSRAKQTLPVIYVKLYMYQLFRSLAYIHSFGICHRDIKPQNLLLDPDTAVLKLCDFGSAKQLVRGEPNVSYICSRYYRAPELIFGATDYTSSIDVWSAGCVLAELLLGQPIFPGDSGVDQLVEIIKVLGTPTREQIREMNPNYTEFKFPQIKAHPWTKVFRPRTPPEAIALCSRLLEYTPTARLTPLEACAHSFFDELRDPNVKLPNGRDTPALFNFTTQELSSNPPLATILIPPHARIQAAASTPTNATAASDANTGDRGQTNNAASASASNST

MAPK1 (mouse) = conditions: compound 10.0 µM; ATP 100 µM; accession and sequence are those of the human protein
LCK (human) = LCK (human) (UniProt P06239); conditions: ATP 100 µM; for residual activity: compound 10.0 µM
Chain of LCK (human) (P06239 whole entry, looked up): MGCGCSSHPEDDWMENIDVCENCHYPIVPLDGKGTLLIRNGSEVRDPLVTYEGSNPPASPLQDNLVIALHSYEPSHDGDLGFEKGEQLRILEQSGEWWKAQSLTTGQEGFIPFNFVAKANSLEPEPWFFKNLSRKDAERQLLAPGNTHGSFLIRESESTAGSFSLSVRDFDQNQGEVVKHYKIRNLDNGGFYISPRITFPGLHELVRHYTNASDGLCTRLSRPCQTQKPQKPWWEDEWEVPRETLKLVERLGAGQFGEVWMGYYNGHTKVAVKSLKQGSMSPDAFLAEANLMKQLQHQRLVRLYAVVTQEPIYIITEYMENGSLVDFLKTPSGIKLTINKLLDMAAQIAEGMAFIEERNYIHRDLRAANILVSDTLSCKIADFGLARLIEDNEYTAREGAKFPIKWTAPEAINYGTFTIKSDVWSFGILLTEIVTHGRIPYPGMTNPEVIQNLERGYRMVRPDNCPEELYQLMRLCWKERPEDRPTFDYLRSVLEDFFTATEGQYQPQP

PRKACA or PRKACB (cow) = conditions: compound 10.0 µM; accession and sequence are those of the human protein

Chain of MAPK14 (human) (Q16539 whole entry, looked up): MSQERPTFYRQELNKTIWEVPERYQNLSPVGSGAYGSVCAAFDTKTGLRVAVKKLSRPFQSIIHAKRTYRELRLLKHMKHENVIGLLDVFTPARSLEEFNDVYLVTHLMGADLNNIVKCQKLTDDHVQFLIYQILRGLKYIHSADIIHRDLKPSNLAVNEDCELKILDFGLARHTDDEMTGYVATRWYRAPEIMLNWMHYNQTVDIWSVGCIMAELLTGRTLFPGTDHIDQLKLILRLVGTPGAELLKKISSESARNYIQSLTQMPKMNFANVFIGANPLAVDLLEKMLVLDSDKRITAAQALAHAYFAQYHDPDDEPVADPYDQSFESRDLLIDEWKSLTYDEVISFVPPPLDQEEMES

| SMILES | residual activity (PRKAA1 or PRKAA2 (rat)) [%] | residual activity (MAPK13 (human)) [%] | residual activity (MAP2K1 (rabbit)) [%] | residual activity (PHKG1 or PHKG2 (rabbit)) [%] | residual activity [1] [%] | residual activity (CDK2 CCNA2 (human)) [%] | residual activity (PDPK1 (human)) [%] | residual activity (MAPK8 (human)) [%] | residual activity (MAPK11 (human)) [%] | residual activity (CSK (human)) [%] | residual activity (AKT1 (human)) [%] | residual activity (PRKCA (human)) [%] | residual activity (MAPKAPK5 (human)) [%] | residual activity (RPS6KA5 KD1 KD2 (human)) [%] | residual activity [2] [%] | residual activity (ROCK2 (rat)) [%] | residual activity (MAPKAPK2 (human)) [%] | residual activity [3] [%] | residual activity (GSK3B (human)) [%] | residual activity (MAPK1 (mouse)) [%] | also measured |
| --- | --- | --- | --- | --- | --- | --- | --- | --- | --- | --- | --- | --- | --- | --- | --- | --- | --- | --- | --- | --- | --- |
| Nc1ncnc2c1cnn2-c1ccccc1 | 94 | 95 | 89 | 99 | 76 | 84 | 82 | 99 | 84 | 96 | 108 | 100 | 97 | 93 | 93 | 93 | 98 | 94 | 99 | 92 | residual activity (MAPK14 (human)): 100%; residual activity (MAPK12 (human)): 83%; residual activity (CHEK1 (human)): 96%; residual activity (RPS6KA1 (rat)): 115%; residual activity (DYRK1A (rat)): 60%; pIC50 (CSNK1A1 (rat)): 5.00; residual activity (CSNK1A1 (rat)): 54% |
| CC(C)(C)n1nc(-c2ccc(Cl)cc2)c2c(N)ncnc21 | 84 | 96 | 55 | 93 | 90 | 68 | 99 | 98 | 26 | 3 | 77 | 66 | 85 | 57 | 70 | 75 | 106 | 111 | 113 | 61 | residual activity (MAPK14 (human)): 21%; residual activity (MAPK12 (human)): 90%; residual activity (CHEK1 (human)): 93%; residual activity (PRKACA or PRKACB (cow)): 74%; residual activity (RPS6KA1 (rat)): 114%; residual activity (DYRK1A (rat)): 94%; residual activity (CSNK1A1 (rat)): 6% |
| CN(C)S(=O)(=O)c1ccc2c(c1)/C(=C/c1cc3c([nH]1)CCCC3)C(=O)N2 | 14 | 78 | 82 | 21 | 93 | 54 | 94 | 103 | 90 | 89 | 100 | 90 | 95 | 94 | 71 | 43 | 96 | 70 | 83 | 102 | residual activity (MAPK14 (human)): 70%; residual activity (LCK (human)): 8%; residual activity (MAPK12 (human)): 75%; residual activity (CHEK1 (human)): 66%; residual activity (PRKACA or PRKACB (cow)): 73%; residual activity (RPS6KA1 (rat)): 27%; residual activity (DYRK1A (rat)): 23%; residual activity (CSNK1A1 (rat)): 66% |
| CC[C@@H](CO)Nc1nc(NCc2ccccc2)c2ncn(C(C)C)c2n1 | 95 | 106 | 93 | 80 | 101 | – | 104 | 91 | 104 | 109 | 89 | 101 | 87 | 92 | 94 | 94 | 85 | 104 | 106 | 81 | residual activity (LCK (human)): 97%; residual activity (CHEK1 (human)): 95%; residual activity (PRKACA or PRKACB (cow)): 93%; residual activity (RPS6KA1 (rat)): 69% |
| Cc1ccc(-c2nn(C(C)(C)C)c3ncnc(N)c23)cc1 | 93 | 102 | 52 | 70 | 96 | 75 | 97 | 98 | 22 | 3 | 97 | 80 | 85 | 55 | 43 | 65 | 96 | 94 | 86 | 75 | residual activity (MAPK14 (human)): 13%; residual activity (LCK (human)): 0%; pIC50 (CSK (human)): 6.28; residual activity (CHEK1 (human)): 91%; residual activity (PRKACA or PRKACB (cow)): 76%; residual activity (RPS6KA1 (rat)): 69%; residual activity (DYRK1A (rat)): 101%; residual activity (CSNK1A1 (rat)): 8% |

More lines, main results first:

| residual activity (PRKAA1 or PRKAA2 (rat)) [%] | residual activity (MAPK13 (human)) [%] | residual activity (MAP2K1 (rabbit)) [%] | residual activity (PHKG1 or PHKG2 (rabbit)) [%] | residual activity [1] [%] | residual activity (CDK2 CCNA2 (human)) [%] | residual activity (PDPK1 (human)) [%] | residual activity (MAPK8 (human)) [%] | residual activity (MAPK11 (human)) [%] | residual activity (CSK (human)) [%] | residual activity (AKT1 (human)) [%] | residual activity (PRKCA (human)) [%] | residual activity (MAPKAPK5 (human)) [%] | residual activity (RPS6KA5 KD1 KD2 (human)) [%] | residual activity [2] [%] | residual activity (ROCK2 (rat)) [%] | residual activity (MAPKAPK2 (human)) [%] | residual activity [3] [%] | residual activity (GSK3B (human)) [%] | residual activity (MAPK1 (mouse)) [%] | SMILES | also measured |
| --- | --- | --- | --- | --- | --- | --- | --- | --- | --- | --- | --- | --- | --- | --- | --- | --- | --- | --- | --- | --- | --- |
| 36 | – | 96 | 77 | 67 | 5 | 41 | 89 | 64 | 90 | 61 | 93 | 78 | 98 | 64 | 45 | 40 | 42 | 4 | 64 | O=C1Cc2c([nH]c3ccc([N+](=O)[O-])cc23)-c2ccccc2N1 | residual activity (MAPK14 (human)): 79%; residual activity (LCK (human)): 19%; residual activity (MAPK12 (human)): 55%; residual activity (PRKACA or PRKACB (cow)): 79%; residual activity (DYRK1A (rat)): 102%; residual activity (CSNK1A1 (rat)): 86% |
| 6 | 65 | 94 | 102 | 82 | 18 | 27 | 21 | 45 | 105 | 62 | 68 | 38 | 40 | 20 | 15 | 69 | 9 | 6 | 104 | O=C1Nc2ccccc2/C1=C1\Nc2ccccc2\C1=N/O | pIC50 (PRKAA1 or PRKAA2 (rat)): 6.66; residual activity (MAPK14 (human)): 83%; pIC50 (CDK2 CCNA2 (human)): 6.23; pIC50 (LCK (human)): 6.52; residual activity (LCK (human)): 11%; residual activity (MAPK12 (human)): 74%; residual activity (CHEK1 (human)): 38%; residual activity (PRKACA or PRKACB (cow)): 80%; residual activity (RPS6KA1 (rat)): 20%; residual activity (DYRK1A (rat)): 62%; residual activity (CSNK1A1 (rat)): 38%; pIC50 [3]: 6.42 |
| 72 | 104 | 103 | 110 | 99 | 22 | 52 | 128 | 108 | 86 | 86 | 120 | 83 | 92 | 117 | 53 | 110 | 92 | 6 | 70 | O=C1Cc2c([nH]c3ccc(Br)cc23)-c2ccccc2N1 | residual activity (MAPK12 (human)): 87%; residual activity (CHEK1 (human)): 65%; residual activity (PRKACA or PRKACB (cow)): 109%; residual activity (RPS6KA1 (rat)): 86%; residual activity (DYRK1A (rat)): 116%; residual activity (CSNK1A1 (rat)): 99% |

Reference: the kinase profiling compilation of Christmann-Franck et al. (2016)
